Test results taken from publication PMC4906374, “Global Profiling and Inhibition of Protein Lipidation in Vector and Host Stages of the Sleeping Sickness Parasite Trypanosoma brucei” (ACS Infectious Diseases, 2016).

Target: T1, TbNMT (Trypanosoma brucei, UniProt Q388H8)
T1 construct: gene Tb10.61.2550; native full-length enzyme in intact bloodstream form parasites; not purified
T1 sequence (Q388H8 1-446): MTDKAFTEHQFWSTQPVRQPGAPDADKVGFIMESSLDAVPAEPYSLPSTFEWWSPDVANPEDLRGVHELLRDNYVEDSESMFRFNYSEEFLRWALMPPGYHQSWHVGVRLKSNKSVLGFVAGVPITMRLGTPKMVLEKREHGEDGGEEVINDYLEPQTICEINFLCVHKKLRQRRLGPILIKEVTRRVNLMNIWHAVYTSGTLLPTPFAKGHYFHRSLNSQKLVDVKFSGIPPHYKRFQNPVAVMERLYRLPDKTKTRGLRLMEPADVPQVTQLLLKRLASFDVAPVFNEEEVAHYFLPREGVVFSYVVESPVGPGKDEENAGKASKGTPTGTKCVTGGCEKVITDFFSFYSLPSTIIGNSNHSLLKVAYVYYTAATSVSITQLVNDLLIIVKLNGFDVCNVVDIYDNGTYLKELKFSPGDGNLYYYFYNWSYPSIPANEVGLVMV
Experiment: in-gel fluorescence of YnMyr tagging (CuAAC, NaOH-treated gels) in intact BSF parasites
Assay type: cell-based
Conditions: read-out: TC50 (tagging-IC50); 100 uM YnMyr, 1 h inhibitor pretreatment, 8 h labelling, 37 °C; whole-parasite value, not isolated enzyme

Cc1noc(C)c1NS(=O)(=O)c1c(Cl)cc(-c2ccnc(N3CCNCC3)c2)cc1Cl [compound 2, inhibitor 2]
IC50: 2.57 ± 0.04 µM
